Laboratory results as given in patent US12383545B1, “Treatment of migraine” (priority 2018, dated 2025).

System: patients with migraine (4 to 14 migraine/probable migraine headache days)
Assay: Example 5: randomized double-blind placebo-controlled 12-week dose-regimen study (QD and BID), migraine/probable migraine (MPM) headache days efficacy
Type: in vivo, human
Conditions: mITT population
Experimental: In a multicenter, randomized, double-blind, placebo-controlled, parallel-group study designed to evaluate the efficacy, safety, and tolerability of multiple doses and doses regimens of atogepant for the prevention of migraine. The patients were randomized (2:1:2:1:2:1) to 1 of 6 treatment groups: placebo, atogepant 10 mg QD, atogepant 30 mg QD, atogepant 30 mg BID, atogepant 60 mg QD, and atogepant 60 mg BID.
This study consisted of a 4-week screening and baseline period and a 12-week double-blind treatment period, which was followed by a 4-week safety follow-up period. Total study duration is 20-weeks.
To be randomized, eligible patients had to be 18 to 75 years of age (inclusive), have a history of migraine with or without aura for at least 1 year consistent with a diagnosis according to the International Classification of Headache Disorders criteria, 3rd edition, beta version, have experienced 4 to 14 migraine/probable migraine headache days and <15 headache days in the 28-day baseline period. Patients who had clinically significant hematologic, endocrine, cardiovascular, cerebrovascular, pulmonary, renal, hepatic, gastrointestinal, or neurologic disease were excluded from the study.
A total of 834 patients were randomized to double-blind treatment (ITT population), and 825 patients took at least 1 dose of double-blind IP (safety population). […] The primary efficacy variable was the change from baseline in mean monthly migraine/probable migraine headache days across the 12-week treatment period. The secondary efficacy variables were the change from baseline in mean monthly headache days across the 12-week treatment period, proportion of patients with at least a 50% reduction in mean monthly migraine/probable migraine headache days across the 12-week treatment period, and the change from baseline in mean monthly acute medication use days across the 12-week treatment period.

[1] = Weeks 1-4, Atogepant 60 mg BID (N = 87)
[2] = Weeks 1-4, Atogepant 60 mg QD (N = 177)
[3] = Weeks 5-8, Atogepant 10 mg QD (N = 92)
[4] = Weeks 5-8, Atogepant 30 mg BID (N = 79)
[5] = Weeks 5-8, Atogepant 30 mg QD (N = 182)
[6] = Weeks 5-8, Atogepant 60 mg BID (N = 87)
[7] = Weeks 5-8, Atogepant 60 mg QD (N = 177)
[8] = Weeks 9-12, Atogepant 10 mg QD (N = 92)
[9] = Weeks 9-12, Atogepant 30 mg BID (N = 79)
[10] = Weeks 9-12, Atogepant 30 mg QD (N = 182)
[11] = Weeks 9-12, Atogepant 60 mg BID (N = 87)
[12] = Weeks 9-12, Atogepant 60 mg QD (N = 177)

For `C[C@@H]1[C@H](c2c(F)ccc(F)c2F)C[C@H](NC(=O)c2cnc3c(c2)C[C@@]2(C3)C(=O)Nc3ncccc32)C(=O)N1CC(F)(F)F` [atogepant], the “Non-responders (at least 100% reduction in mean monthly MPM headache days not met), (%)” value [1] was “(79.3) %”, the “Non-responders (at least 100% reduction in mean monthly MPM headache days not met), n” value [1] was 69 and the “Odds ratio vs. Placebo, at least 100% reduction in mean monthly MPM headache days” value [1] was 7.43. The “Responders (at least 100% reduction in mean monthly MPM headache days), (%)” value [1] was “(20.7) %”, the “Responders (at least 100% reduction in mean monthly MPM headache days), n” value [1] was 18 and the “Non-responders (at least 100% reduction in mean monthly MPM headache days not met), (%)” value [2] was “(85.2) %”. For the same compound, the “Non-responders (at least 100% reduction in mean monthly MPM headache days not met), n” value [2] was 150, the “Odds ratio vs. Placebo, at least 100% reduction in mean monthly MPM headache days” value [2] was 4.94 and the “Responders (at least 100% reduction in mean monthly MPM headache days), (%)” value [2] was “(14.8) %”. The “Responders (at least 100% reduction in mean monthly MPM headache days), n” value [2] was 26, the “Non-responders (at least 100% reduction in mean monthly MPM headache days not met), (%)” value [3] was “(79.1) %” and the “Non-responders (at least 100% reduction in mean monthly MPM headache days not met), n” value [3] was 68. For the same compound, the “Odds ratio vs. Placebo, at least 100% reduction in mean monthly MPM headache days” value [3] was 2.34, the “Responders (at least 100% reduction in mean monthly MPM headache days), (%)” value [3] was “(20.9) %” and the “Responders (at least 100% reduction in mean monthly MPM headache days), n” value [3] was 18. For the same compound, the “Non-responders (at least 100% reduction in mean monthly MPM headache days not met), (%)” value [4] was “(80.3) %”, the “Non-responders (at least 100% reduction in mean monthly MPM headache days not met), n” value [4] was 57 and the “Odds ratio vs. Placebo, at least 100% reduction in mean monthly MPM headache days” value [4] was 2.26. For the same compound, the “Responders (at least 100% reduction in mean monthly MPM headache days), (%)” value [4] was “(19.7) %”, the “Responders (at least 100% reduction in mean monthly MPM headache days), n” value [4] was 14 and the “Non-responders (at least 100% reduction in mean monthly MPM headache days not met), (%)” value [5] was “(73.3) %”. The “Non-responders (at least 100% reduction in mean monthly MPM headache days not met), n” value [5] was 121, the “Odds ratio vs. Placebo, at least 100% reduction in mean monthly MPM headache days” value [5] was 3.26 and the “Responders (at least 100% reduction in mean monthly MPM headache days), (%)” value [5] was “(26.7) %”. The “Responders (at least 100% reduction in mean monthly MPM headache days), n” value [5] was 44, the “Non-responders (at least 100% reduction in mean monthly MPM headache days not met), (%)” value [6] was “(73.8) %” and the “Non-responders (at least 100% reduction in mean monthly MPM headache days not met), n” value [6] was 59. The “Odds ratio vs. Placebo, at least 100% reduction in mean monthly MPM headache days” value [6] was 3.25, the “Responders (at least 100% reduction in mean monthly MPM headache days), (%)” value [6] was “(26.3) %” and the “Responders (at least 100% reduction in mean monthly MPM headache days), n” value [6] was 21. For the same compound, the “Non-responders (at least 100% reduction in mean monthly MPM headache days not met), (%)” value [7] was “(79.9) %”, the “Non-responders (at least 100% reduction in mean monthly MPM headache days not met), n” value [7] was 135 and the “Odds ratio vs. Placebo, at least 100% reduction in mean monthly MPM headache days” value [7] was 2.31. For the same compound, the “Responders (at least 100% reduction in mean monthly MPM headache days), (%)” value [7] was “(20.1) %”, the “Responders (at least 100% reduction in mean monthly MPM headache days), n” value [7] was 34 and the “Non-responders (at least 100% reduction in mean monthly MPM headache days not met), (%)” value [8] was “(79.8) %”. For the same compound, the “Non-responders (at least 100% reduction in mean monthly MPM headache days not met), n” value [8] was 67, the “Odds ratio vs. Placebo, at least 100% reduction in mean monthly MPM headache days” value [8] was 1.43 and the “Responders (at least 100% reduction in mean monthly MPM headache days), (%)” value [8] was “(20.02) %”. The “Responders (at least 100% reduction in mean monthly MPM headache days), n” value [8] was 17, the “Non-responders (at least 100% reduction in mean monthly MPM headache days not met), (%)” value [9] was “(71.0) %” and the “Non-responders (at least 100% reduction in mean monthly MPM headache days not met), n” value [9] was 49. The “Odds ratio vs. Placebo, at least 100% reduction in mean monthly MPM headache days” value [9] was 2.42, the “Responders (at least 100% reduction in mean monthly MPM headache days), (%)” value [9] was “(29.0) %” and the “Responders (at least 100% reduction in mean monthly MPM headache days), n” value [9] was 20. The “Non-responders (at least 100% reduction in mean monthly MPM headache days not met), (%)” value [10] was “(77.0) %”, the “Non-responders (at least 100% reduction in mean monthly MPM headache days not met), n” value [10] was 117 and the “Odds ratio vs. Placebo, at least 100% reduction in mean monthly MPM headache days” value [10] was 1.72. The “Responders (at least 100% reduction in mean monthly MPM headache days), (%)” value [10] was “(23.0) %”, the “Responders (at least 100% reduction in mean monthly MPM headache days), n” value [10] was 35 and the “Non-responders (at least 100% reduction in mean monthly MPM headache days not met), (%)” value [11] was “(67.6) %”. For the same compound, the “Non-responders (at least 100% reduction in mean monthly MPM headache days not met), n” value [11] was 48, the “Odds ratio vs. Placebo, at least 100% reduction in mean monthly MPM headache days” value [11] was 2.59 and the “Responders (at least 100% reduction in mean monthly MPM headache days), (%)” value [11] was “(32.4) %”. For the same compound, the “Responders (at least 100% reduction in mean monthly MPM headache days), n” value [11] was 23, the “Non-responders (at least 100% reduction in mean monthly MPM headache days not met), (%)” value [12] was “(73.2) %” and the “Non-responders (at least 100% reduction in mean monthly MPM headache days not met), n” value [12] was 120. For the same compound, the “Odds ratio vs. Placebo, at least 100% reduction in mean monthly MPM headache days” value [12] was 2.07, the “Responders (at least 100% reduction in mean monthly MPM headache days), (%)” value [12] was “(26.8) %” and the “Responders (at least 100% reduction in mean monthly MPM headache days), n” value [12] was 44.
